Experimental findings from PubChem BioAssay AID1645863 (Buhrlage Lab, Dana-Farber Cancer Institute and Novartis …, 2021) are described below.

Calls of active or inactive are those of the source. No rule for the calls is given here.

The target of this test is Ubiquitin carboxyl-terminal hydrolase 10 (Homo sapiens) (UniProt Q14694). Put plainly: primary hit verification, biochemical, ubiquitin-specific protease 10 deubiquitylase inhibitors, concentration-effect titration (AID 1645863).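 Also: potency values describe inhibition of USP10 cleavage of a fluorogenic ubiquitin substrate.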 As to conditions: USP10 deubiquitinase enzymatic assay.
Chain of Ubiquitin carboxyl-terminal hydrolase 10 (Homo sapiens) (Q14694 whole entry, looked up): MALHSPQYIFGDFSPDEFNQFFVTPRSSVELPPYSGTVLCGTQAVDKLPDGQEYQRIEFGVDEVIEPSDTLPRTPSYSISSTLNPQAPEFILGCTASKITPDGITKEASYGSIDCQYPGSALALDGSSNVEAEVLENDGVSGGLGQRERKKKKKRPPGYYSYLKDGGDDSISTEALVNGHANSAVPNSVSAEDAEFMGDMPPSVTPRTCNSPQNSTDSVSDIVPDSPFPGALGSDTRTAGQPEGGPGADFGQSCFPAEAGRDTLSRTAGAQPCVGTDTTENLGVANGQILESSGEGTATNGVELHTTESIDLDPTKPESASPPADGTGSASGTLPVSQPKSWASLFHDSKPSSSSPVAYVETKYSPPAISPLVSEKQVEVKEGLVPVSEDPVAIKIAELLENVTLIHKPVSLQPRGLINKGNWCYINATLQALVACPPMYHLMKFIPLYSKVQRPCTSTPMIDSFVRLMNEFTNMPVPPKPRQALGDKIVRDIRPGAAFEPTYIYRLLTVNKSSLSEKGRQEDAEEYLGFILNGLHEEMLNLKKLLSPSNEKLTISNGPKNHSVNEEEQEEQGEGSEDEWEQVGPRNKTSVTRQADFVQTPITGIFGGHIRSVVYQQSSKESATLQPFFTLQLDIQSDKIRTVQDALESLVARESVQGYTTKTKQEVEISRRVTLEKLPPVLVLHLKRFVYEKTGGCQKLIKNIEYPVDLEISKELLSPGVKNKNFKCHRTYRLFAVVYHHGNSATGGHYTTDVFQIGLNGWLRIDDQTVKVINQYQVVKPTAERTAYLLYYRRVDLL
For orientation: IC50 means the concentration that gives 50% inhibition. For `O=S(=O)(Nc1ccc(Oc2ncnc3cc(Cl)ccc23)nc1)c1ccc(S(=O)(=O)c2ccccc2)s1`, the IC50 is 29.5 µM.
With `COCC(=O)N1CCC(n2c(C3CC3)nc3sc(C)c(C)c3c2=O)CC1` the figure was > 40 µM (inactive); with `CCOc1ccc(S(=O)(=O)Nc2ccc[nH]c2=O)cc1`, > 40 µM (inactive).
As for `O=C(Cc1ccc(-n2c(=O)c3ccccc3n(Cc3cccc(F)c3)c2=O)cc1)NC1CCCC1`, the figure is > 40 µM (inactive).
Regarding `Cc1sc(NC(=O)c2ccc(S(=O)(=O)N(C)Cc3ccccc3)cc2)c(C(N)=O)c1C`, the IC50 was > 40 µM (inactive).
In the case of `O=C(Nc1cc(S(=O)(=O)Nc2ccc(Cl)cc2)ccc1O)c1cc2c(s1)CCC2`, the IC50 is 10.3 µM.
With `O=C(c1cc(S(=O)(=O)Nc2ccc(Cl)cc2)ccc1Cl)N1CCCc2ccccc21` the figure was > 40 µM (inactive).
As for `CCCCCCCc1cc(OC(=O)c2c(CCCCCCC)cc(O)cc2O[C@@H]2O[C@H](CO)[C@H](O)[C@H](O)[C@H]2O)cc(O)c1C(=O)O`, the figure is 5.17 µM.
In the case of `O=C(Cn1cc(C(=O)C(F)(F)F)c2cc(Br)ccc21)N1CCc2ccccc21`, the IC50 was 35.6 µM.
With `CCN(Cc1ccccc1)C(=O)Cn1ccc2ccn(C)c2c1=O` the figure was > 40 µM (inactive).
As for `COc1ccc(Cl)cc1NC(=O)CSc1ncnc2nc[nH]c12`, the IC50 was 37.9 µM.
Turning to `COc1cc(CC(=O)Nc2ccccc2N2CCOCC2)cc(OC)c1OC`, the IC50 is > 40 µM (inactive).
In the case of `Nc1ccc2oc(-c3cccc(-c4nc5cc(N)ccc5o4)n3)nc2c1`, the IC50 was 26.6 µM.
For `CCCCCCC1CCC(O)CC(O)CC(O)CC(O)CC(O)CC(O)/C(C)=C/C=C\C=C/C=C/C=C/[C@H](O)[C@@H](C)OC1=O` (stereo partly drawn), the IC50 was > 40 µM (inactive).
As for `COc1cccc(N2CCCN(C(=O)c3ccc4nc(C)[nH]c4c3)CC2)c1`, the figure is > 40 µM (inactive).
Turning to `CCOc1ccc2c(c1)c(=O)c(C(=O)c1ccc(F)cc1)cn2CC(=O)Nc1ccccc1`, the IC50 is > 40 µM (inactive).
With `CCN(c1ccc(NC(=O)CSc2nnc(-c3ccccc3)n2-c2ccc(OC)c(OC)c2)cc1)C(C)C`, the IC50 was > 40 µM (inactive).
With `O=C(Cn1c(=O)n(CCC(=O)NC2CCCC2)c(=O)c2ccccc21)NCc1ccccc1Cl` the figure was > 40 µM (inactive).
With `O=c1oc2c3c(c(Cl)cc2c2c1CCCC2)OCN(Cc1ccccc1)C3`, the IC50 is > 40 µM (inactive).
As for `Cc1noc(-c2ccnc(-n3cnc(C(=O)NCC4CC4)c3)c2)n1`, the IC50 was > 40 µM (inactive).
With `CN(C)[C@@H]1C(=O)C(C(N)=O)=C(O)[C@@]2(O)C(=O)C3=C(O)c4c(O)cccc4[C@@](C)(O)C3[C@H](O)[C@@H]12` (stereo partly drawn) the figure was 1.1 µM; with `CCCCCCCCC/C=C/C(=O)CCc1c(O)c(C=O)c2c(c1O)C(=O)OC2O` (stereo not drawn), 0.584 µM; with `O=C(c1cc(Cl)c(Cl)[nH]1)c1cc(Cl)cc(Cl)c1O`, 15.2 µM.
With `N=C1/C(=C/c2cn(Cc3ccccc3)c3ccccc23)C(=O)N=C2SC(C(F)(F)F)=NN12`, the IC50 was > 40 µM (inactive).
With `N=C1/C(=C/c2cn(Cc3ccccc3F)c3ccccc23)C(=O)N=C2SC(C(F)(F)F)=NN12` the entry was “inactive”.
As to `O=C(Nc1cccc(F)c1)Nc1cccc(-c2nnc(-c3ccccc3)o2)c1`, the IC50 is 18.2 µM.
As for `CCCCNC(=O)C1Sc2nnc(-c3ccccc3)n2NC1c1ccccc1` (stereo not drawn), the figure is > 40 µM (inactive); as for `CCc1ccc(-n2cc(OC(C)=O)c3c2nc(C)n2c4ccccc4nc32)cc1`, > 40 µM (inactive).
As to `N#C/C(=C\c1ccccc1F)c1nnc(N)s1`, the IC50 was > 40 µM (inactive).
With `O=C(CCc1ccc(F)cc1)N1CCOC(CCc2cc(=O)[nH]cn2)C1` (stereo not drawn) the figure was > 40 µM (inactive); with `Cc1nnc(NC(=O)C2CCN(c3ccc(S(N)(=O)=O)cc3[N+](=O)[O-])CC2)o1`, 12.6 µM; with `CC(=O)Nc1ccc(S(=O)(=O)NCc2ccc(C(=O)NCCc3ccc(Cl)cc3)cc2)cc1`, > 40 µM (inactive).
Consider `CCc1ccc(NC(=O)Cn2c(=O)n(Cc3ccccc3)c(=O)c3nn(CC)cc32)cc1`, for which the IC50 was > 40 µM (inactive).
`N#Cc1cccc(NC(=O)COC(=O)c2n[nH]c3ccccc23)c1`: the IC50 was 19.8 µM.
Consider `CCOc1ccc(-c2nnc(-c3cnc4onc(C5CCCC5)c4c3)o2)cc1`, for which the IC50 is 25 µM.
In the case of `Cc1cc(=O)n(CC(=O)Nc2ccc3c(c2)OCO3)c2c1c(-c1ccccc1)nn2-c1ccccc1`, the IC50 is > 40 µM (inactive).
`COc1c2nc3ccccc3oc-2cc(=O)c1OC`: the IC50 is > 40 µM (inactive).
With `Cc1ccc(Nc2nc(O)c(CC(=O)Nc3cccc(Cl)c3C)s2)cc1C` the figure was 25.4 µM; with `COc1ccc(Cn2nc(C)cc2NC(=O)c2cccc(F)c2)cc1OC`, > 40 µM (inactive).
As for `Cc1ccccc1-c1noc(-c2cccn(CC(=O)Nc3ccccc3F)c2=O)n1`, the figure is > 40 µM (inactive); as for `COc1ccc(-c2cc3nc([C@H](C)NC(=O)CC4CCCC4)nn3cn2)cc1`, > 40 µM (inactive).
As for `O=C(/C=C/c1ccco1)c1cccc([N+](=O)[O-])c1`, the figure is 35.1 µM; as for `O=C(COC(=O)c1cc2c(s1)CCC2)c1ccc2[nH]c(=O)[nH]c2c1`, > 40 µM (inactive).
In the case of `O=C(NCc1ccc2c(c1)OCO2)c1[nH]nc2c1COc1ccccc1-2`, the IC50 was 15.2 µM.
With `Cc1nc2c(c(C)c1CCC(=O)Nc1ccccc1F)c(=O)n(C)c(=O)n2C` the figure was > 40 µM (inactive); with `COc1cc(Cl)c(NC(=O)C2Cc3ccccc3N2C(=O)c2ccccc2)c(OC)c1` (stereo not drawn), 26.9 µM.
With `COc1ccc(NC(=O)CC(=O)c2ccc([N+](=O)[O-])cc2)cc1S(=O)(=O)Nc1ccc(Br)cc1` the figure was 22.9 µM.
With `Cc1cc(Nc2ccc(C(=O)NCc3ccco3)cc2)n2nc(-c3cccnc3)nc2n1` the figure was > 40 µM (inactive).
Take `Cc1cc(OCC(=O)Nc2ccc3c(c2)NC(=O)CO3)ccc1Cl`: the IC50 is 15.5 µM.
Turning to `COCCCN1CCS(=O)(=O)c2c(Cl)c(F)nc(Oc3ccc(C#N)cc3)c21`, the IC50 is > 40 µM (inactive).
On to `COc1ccc(CNC(=O)Cn2c(=O)[nH]c3c(-c4ccccc4F)c[nH]c3c2=O)cc1`, for which the IC50 is > 40 µM (inactive).
Consider `COc1ccc(C(=O)C(C)OC(=O)c2cccc(S(=O)(=O)Nc3cc([N+](=O)[O-])ccc3OC)c2)c(OC)c1` (stereo not drawn), for which the IC50 is > 40 µM (inactive).
With `C/C=C/C=C/[C@@H]1Cc2cc(O)cc(O)c2O1` the figure was 35.6 µM.
With `COc1cc2c(=O)n(CCC(=O)NC3CCCC3)c(=O)n(CC(=O)Nc3cccc(Cl)c3)c2cc1OC` the figure was 36.1 µM; with `O=C(Nc1nc2c(ccc3ccccc32)s1)c1cccc(Br)c1`, > 40 µM (inactive).
With `Cc1ccc2c(CNCCC3=CCCCC3)c(C(=O)O)n(C)c2c1` the figure was > 40 µM (inactive); with `Brc1ccc(Nc2nc(-c3ccccn3)nc3ccccc23)cc1`, 21 µM; with `CCc1ccc(NC(=O)C(C)OC(=O)/C=C/c2ccc(S(=O)(=O)Nc3cccc(S(N)(=O)=O)c3)cc2)cc1` (stereo not drawn), 21.7 µM.
Regarding `CCC(=O)N1c2ccccc2NC2=C(C(=O)CC(c3ccccc3OCc3ccccc3)C2)C1c1ccccc1` (stereo not drawn), the IC50 was 35.7 µM.
For `COc1ccc(C)cc1NC(=O)C1CC(=O)Nc2nc3ccccc3n21` (stereo not drawn), the IC50 was 28.1 µM.
With `O=S1(=O)CCN(Cc2c(F)cccc2F)c2c(F)nc(N3CCOCC3)c(F)c21` the figure was > 40 µM (inactive).
With `COc1ccc(C(=O)NC(Cc2ccccc2)c2nc3ccccc3[nH]2)c(OC)c1` (stereo not drawn), the IC50 is > 40 µM (inactive).
Consider `CNc1ncc(C(=O)N2CCOC(C(=O)N3CCCCCC3)C2)cn1` (stereo not drawn), for which the IC50 is > 40 µM (inactive).
For the compound `Cc1cc(C)c(O)c(-c2cc(C(=O)Nc3ccccc3Cl)[nH]n2)c1`, the IC50 was > 40 µM (inactive).
With `COc1c(O)cc(CC(=O)O)c(C(C)=O)c1O` the figure was 15.3 µM; with `Cc1cc(C(=O)N2CCOCC2)c(C)n1-c1ccc(O)cc1`, > 40 µM (inactive).
As for `CCCCCC(=O)C(CCCC)c1oc(=O)c(CCCC)c(O)c1CCCC` (stereo not drawn), the IC50 was 31 µM.
With `CCC/C=C\C#CC/C=C\CCCCCCCC(=O)O` the figure was 3.3 µM; with `CN1CCC(N2CCN(C(=O)C3CCCN(c4cnc5nccnc5c4)C3)CC2)CC1` (stereo not drawn), > 40 µM (inactive).
With `O=C(CSc1ccc(-c2cccc([N+](=O)[O-])c2)nn1)Nc1cccc(F)c1`, the IC50 is 15.9 µM.
Consider `CCCCCCCCCC(CCCCCCCCCC(=O)O)O[C@H]1O[C@@H](COC(C)=O)[C@H](O)[C@@H](O)[C@H]1OC(=O)CC(=O)O` (stereo partly drawn), for which the IC50 was 29.4 µM.
As for `COc1ccc(NC(=O)CNC(=O)c2ccc3nc(-n4cccc4)sc3c2)cc1`, the IC50 is > 40 µM (inactive).
As for `CC(Nc1nnc(Cc2ccccc2)c(=O)[nH]1)c1ccccc1` (stereo not drawn), the figure is > 40 µM (inactive); as for `Cn1c(=O)c(C(=O)Nc2ccc(Br)cc2)nc2ccccc21`, 26.5 µM; as for `COC(=O)c1ccc(C2c3[nH]c4ccccc4c3C[C@@H]3C(=O)N(c4ccc5c(c4)OCCO5)C(=O)N23)cc1` (stereo partly drawn), > 40 µM (inactive).
With `O=C(CCCCn1c(=O)c2ccccc2n(CC(=O)Nc2ccc3c(c2)OCCO3)c1=O)NCc1ccco1`, the IC50 was 25.2 µM.
Consider `O=C1CSC(c2ccc3c(c2)OCO3)c2c(n(C3CCCCCC3)[nH]c2=O)N1` (stereo not drawn), for which the IC50 was 36.8 µM.
Take `N#Cc1ccccc1NC(=O)c1cc2c(s1)-c1ccccc1S(=O)(=O)C2`: the IC50 was 34.6 µM.
Regarding `COc1ccc(-c2nc(-c3nnn(Cc4ccc(F)cc4)c3C)no2)c(OC)c1`, the IC50 is > 40 µM (inactive).
As for `Cc1cc(-c2nnc(SCC(=O)Nc3ccc(Br)c(C)c3)n2N)n[nH]1`, the figure is > 40 µM (inactive).
With `CCN(CC)C(=O)c1sc(NC(=O)c2cc(-c3ccccc3Cl)nc3ccccc23)c(C(N)=O)c1C` the figure was > 40 µM (inactive).
Take `Cc1cccc(NC(=O)CNC(=O)c2ccc(-c3noc(C4CCCC4)n3)cc2)c1C`: the IC50 was > 40 µM (inactive).
In the case of `O=C(Cn1c(=O)c2ccccc2c2ccccc21)Nc1ccc2c(c1)OCO2`, the IC50 was 34.9 µM.
